MIC, CC50 and half-life data for 1 molecule are collected here from article PMC9186351, “Discovery of N-quinazolinone-4-hydroxy-2-quinolone-3-carboxamides as DNA gyrase B-targeted antibacterial agents” (Journal of Enzyme Inhibition and Medicinal Chemistry, 2022).

The test system of data set [1] is methicillin-resistant S. aureus (MRSA). The experiment in a line: MIC by broth microdilution, MRSA strains. To be noted: Staphylococcus aureus. The format is cell-based. As for the experimental part:
(§1) All of the bacterial strains used in this study were obtained from the Collection Centre of Pathogen Microorganism of Chinese Academy of Medical Sciences (CAMS-CCPM-A) in China. All of the isolates were stored at −80 °C and streaked on tryptic soy agar (TSA) plates to obtain overnight cultures. The MICs of the test compounds were determined by the broth microdilution method in accordance with the Clinical and Laboratory Standards Institute (CLSI) guidelines.[20] Cation-adjusted Mueller-Hinton broth (CAMHB) was used as the growth medium for MIC assays. Briefly, 100 μL of serially diluted compounds (starting concentrations were 64 μg/mL) in CAMH broth were added to the wells of 96-well microtiter plates. Then, 10 µL of 5 × 10^6 CFU/mL bacterial culture was added to each well. […] The MIC was defined as the lowest concentration of a compound that inhibited visual growth of the bacteria. Vancomycin was set as the positive control for this assay.
(In broth dilution the organism is exposed to a series of concentrations in liquid medium.)

The next data set relates to MRSA/VISA strains. The experiment in a line: MIC by broth microdilution, MRSA and VISA panel. The format is cell-based, S. aureus. To be noted: Staphylococcus aureus. As for the experimental part:
as §1

The nature of data set [2]: Cytotoxicity, SRB assay, HUVEC. The format is cell-based, human. To be noted: human, HUVEC cells, 72-h treatment (footnote), read-out: In vitro cytotoxicity CC50 (μM, mean ± SD). The procedure:
(§2) Cytotoxicity in terms of CC50 was determined by the SRB assay according to the protocol described in our previous publication.[16] Briefly, human HUVECs or HepG2 cells were seeded in the wells of 96-well plates at a concentration of 1 × 10^5 cells per well and incubated at 37 °C for 24 h. […] The cells were fixed with 10% trichloroacetic acid (w/v) at 4 °C for 1 h, washed five times with distilled water, and stained with 0.4% SRB solution at room temperature for another 20 min. The cells were then washed five times with 1% acetic acid and air-dried. The protein-bound dye was dissolved in 10 mM Tris-base solution and shaken for 5 min. The optical density (OD) was measured at 540 nm using a microplate reader to estimate the cell viability (%). With the viability values (%) of the cells treated by the compound at different concentrations as input, the CC50 value was determined by the non-linear regression with normalised dose-response fit implemented in GraphPad Prism version 5 software (GraphPad Software Inc., La Jolla, CA). The experiment was performed in duplicate, and paclitaxel was used as the positive drug for this assay.

Another data set has as its system HUVECs. The experiment in a line: Cytotoxicity, SRB assay, HUVEC. Format: cell-based, human. To be noted: 72-h treatment (footnote), read-out: In vitro cytotoxicity CC50 (μM, mean ± SD). The procedure: as §2
A general note: The SRB assay estimates cell density from bound dye.

The nature of data set [3]: Mouse microsomal stability assay. Format: in vitro ADME. To be noted: mouse, microsomes, pH 7.4. The procedure: The mouse liver microsomes were purchased from BioreclamationIVT and stored at −80 °C. The working solutions (0.2 mM) of the control compound, i.e. dextromethorphan, and the test compound dissolved in DMSO were prepared. Terfenadine (5 ng/mL) and tolbutamide (10 ng/mL) dissolved in acetonitrile were used as two quenching solutions. NADPH was dissolved in the phosphate buffer (50 mM K2HPO4, pH 7.4) at 5 mM. The mouse liver microsomes were thawed at 37 °C. The concentration of the stock solution was 20 mg/mL. The working solution (0.629 mg/mL) was prepared by dilution in phosphate buffer.
The working solution of the control/test compound (1.5 µL) was mixed with the liver microsome working solution (238.5 µL) in a 96-well plate and pre-incubated at 37 °C for 5 min. The 5 mM NADPH working solution (60 µL) was added to the solution to initiate the metabolic reaction. At each time point (0, 5, 15, 30, and 60 for the control/test compound), 30 µL of the reaction mixture was sampled and moved to 300 µL of quenching solutions. When the sampling was done, each sample was centrifuged at 4000 rpm at 4 °C for 15 min. The supernatant was analysed with the same HPLC system as the plasma stability assay. The residues (%) of the test/control compound along with the incubation time were calculated based on which the half-life (t1/2) value was determined.

Converted amounts (≈) assume the structure as drawn. Where two headings read alike, the source gives them in different places.

The term CC50 denotes the concentration that lowers cell viability or growth by half. As usually defined, the half-life is the time needed for the level to fall by half in the phase considered. Consider `CCCCCc1nc2ccccc2c(=O)n1NC(=O)c1c(O)c2ccccc2n(CC)c1=O` [f1, N-(4-oxo-2-pentylquinazolin-3(4H)-yl)-1-ethyl-4-hydroxy-2-oxo-1,2-dihydroquinoline-3-carboxamide], for which the MIC in data set [1] (ATCC 33591 / MRSA, MRSA ATCC 33591, read-out: MIC) was 4 µg/mL (≈ 8.96 µM); in data set [1] (ATCC 43300 / MRSA, MRSA ATCC 43300, read-out: MIC) it was 4 µg/mL (≈ 8.96 µM); in data set [1] (MRSA 18-2, read-out: MIC), 8 µg/mL (≈ 17.9 µM); in data set [1] (span over MRSA strains, read-out: MICs against MRSA), 4 to 8 µg/mL (≈ 8.96 to 17.9 µM); in the data set with MRSA/VISA strains (ATCC 33591 / ATCC 43300 / ATCC 700699 / MRSA / VISA, span over ATCC 33591, ATCC 43300, 18-2, ATCC 700699, HIP 5836, HIP 5827, read-out: MICs for MRSA and VISA strains) it was 4 to 16 µg/mL; in the data set with MRSA/VISA strains (span over tested MRSA/VISA strains, read-out: MICs for MRSA/VISA strains converted to) it was 8.97 to 35.9 µM. Also, the CC50 at 72 h in data set [2] is ~50 µM. In the data set on HUVECs, the CC50 was found to be 51.5 ± 4.5 µM. The molecule further gave a half-life at 1 µM in data set [3] of 24.5 min.
